The values that follow come from patent US9181181B2, “2-substituted-3-phenylpropionic acid derivatives and their use in the treatment of inflammatory bowel disease” (Albireo AB, priority 2007, dated 2015).

The target in one assay is human PPARalpha (Homo sapiens (Human), UniProt Q07869). Nature of the assay: Transactivation (reporter gene) assay, GAL4-PPARalpha LBD in U-2 OS cells. In kind it is cell-based. The note with it: 40 h incubation, 16 μM ETYA as 100% control, read-out: EC50 PPARα. The procedure:
(§1) Transactivation Assay Expression vectors were prepared by inserting the ligand binding domain cDNA (complementary DNA) of human PPARalpha (amino acid 168-468) and human PPARgamma (amino acid 205-505), 3′ to and in frame with, the yeast GAL4 transcription factor DNA binding domain and the nuclear localization signal from the T-antigen of Polyoma Virus into the mammalian expression vector pSGS (Stratagene). The resulting expression vectors pSGGAL-PPARalpha and pSGGAL-PPARgamma were used in co-transfection experiments together with a modified pGL3 promoter plasmid (Promega) containing five copies of the UAS GAL4 recognition site. 2.5 μg pSGGAL-PPARalpha or pSGGAL-PPARgamma were mixed with 25 μg pGL3p […] and 22.5 μg pBluescript (Stratagene) in 0.95 mL ice cold PBS containing between 9-12 million U-2 OS (human osteosarcoma) cells. The cell/DNA mixture was incubated on ice for 5 minutes and then divided between two 0.4 cm cuvettes and electroporated at 960 μF, 230 V using a BioRad electroporator. The two electroporation mixes were combined in assay medium [Dulbecco's Modified Eagle Medium w/o phenol red, (Gibco 11880-028) including 10% FBS (Foetal Bovine Serum), 1% PEST (Penicillin & Streptomycin), 20 mM Hepes, 2 mM L-Glutamine and 0.36% Glucose (Gibco 31966-021)] at 0.32 million cells/ml. 25 μl diluted, electroporated cells, were seeded into 384-well plates and allowed to adhere for 3-4 h at 37° C., 5% CO2 in a cell culture incubator. Test compounds in DMSO were diluted 40 fold in assay medium. 7 μl of diluted compound was added to the adhered electroporated cells and incubation was continued for 40 h in a cell culture incubator. Cells were lysed by adding 32 μl/well LucLite (Packard) and incubated at room temperature for 15 minutes. Luciferase activity was measured using a luminometry protocol on a Wallac Victor2 plate reader. 16 μM ETYA was used as the 100% control for humanPPARalpha activity and 16 μM Pioglitazone was used as the 100% control for humanPPARgamma activity. In Vivo Assay Determination of Plasma Clearance and Oral Bioavailability in Hamster or Mouse

A further assay deals with human PPARgamma (Homo sapiens (Human), UniProt P37231). Kind of assay: Transactivation (reporter gene) assay, GAL4-PPARgamma LBD in U-2 OS cells. In kind it is cell-based. The note with it: 40 h incubation, 16 μM Pioglitazone as 100% control, read-out: EC50 PPARγ. Here is the method:
as §1

Usually EC50 stands for the concentration giving half of the maximal effect.

Sequence of human PPARgamma (P37231 205-505): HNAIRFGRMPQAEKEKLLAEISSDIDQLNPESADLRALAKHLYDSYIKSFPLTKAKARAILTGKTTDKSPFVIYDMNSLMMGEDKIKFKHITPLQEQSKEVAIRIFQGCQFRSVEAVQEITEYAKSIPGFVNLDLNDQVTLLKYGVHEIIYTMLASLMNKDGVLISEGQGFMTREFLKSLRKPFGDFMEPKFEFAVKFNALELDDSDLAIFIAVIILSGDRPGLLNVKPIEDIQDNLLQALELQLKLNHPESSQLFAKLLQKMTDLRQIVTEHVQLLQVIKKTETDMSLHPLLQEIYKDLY
Sequence of human PPARalpha (Q07869 168-468): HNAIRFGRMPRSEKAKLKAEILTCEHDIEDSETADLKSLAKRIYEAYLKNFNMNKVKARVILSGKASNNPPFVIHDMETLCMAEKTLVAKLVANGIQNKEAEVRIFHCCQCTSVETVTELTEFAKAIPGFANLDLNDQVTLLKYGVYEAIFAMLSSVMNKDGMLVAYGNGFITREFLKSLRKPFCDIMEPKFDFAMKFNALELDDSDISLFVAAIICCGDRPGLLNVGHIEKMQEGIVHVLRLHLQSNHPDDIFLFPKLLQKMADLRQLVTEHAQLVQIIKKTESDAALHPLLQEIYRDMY

`Cc1oc(-c2ccccc2)nc1CCOC(=O)c1ccc(CC(SCCc2ccc(F)cc2)C(=O)O)cc1` (single isomer, unassigned) [Example 20, 4-{(−)-2-Carboxy-2-[2-(4-fluoro-phenyl)-ethylsulfanyl]-ethyl}-benzoic acid 2-(5-methyl-2-phenyl-oxazol-4-yl)-ethyl ester]: the EC50 on human PPARalpha came out at 840 nM; on human PPARgamma, 72 nM.
The matching figures for `Cc1oc(-c2ccccc2)nc1CC(=O)OCc1ccc(CC(SCCc2ccc(F)cc2)C(=O)O)cc1` (single isomer, unassigned; (-)) [Example 19, (−)-2-[2-(4-Fluoro-phenyl)-ethylsulfanyl]-3-{4-[2-(5-methyl-2-phenyl-oxazol-4-yl)-acetoxymethyl]-phenyl}-propionic acid]: 72 nM and 470 nM.
The matching figures for `O=C(Cc1ccc(CC(SCCc2ccc(F)cc2)C(=O)O)cc1)OCc1ccc(C(F)(F)F)cc1` (stereo not shown) [Example 3, 2-[2-(4-Fluoro-phenyl)-ethylsulfanyl]-3-[4-(4-trifluoromethyl-benzyloxycarbonylmethyl)-phenyl]-propionic acid]: 56 nM and 1700 nM.
For the compound `CS(=O)(=O)Oc1ccc(COC(=O)Cc2ccc(CC(SCCc3ccc(F)cc3)C(=O)O)cc2)cc1` (stereo not shown) [Example 4, 2-[2-(4-Fluoro-phenyl)-ethylsulfanyl]-3-[4-(4-methanesulfonyloxy-benzyloxycarbonylmethyl)-phenyl]-propionic acid], the EC50 on human PPARalpha was determined as 1400 nM.
As to `CS(=O)(=O)Oc1ccc(CC(=O)OCCc2ccc(CC(SCCc3ccc(F)cc3)C(=O)O)cc2)cc1` (stereo not shown) [Example 5, 2-[2-(4-Fluoro-phenyl)-ethylsulfanyl]-3-(4-{2-[2-(4-methanesulfonyloxy-phenyl)-acetoxy]-ethyl}-phenyl)-propionic acid], the EC50 on human PPARalpha came out at 200 nM; on human PPARgamma it was 6000 nM.
As for `CS(=O)(=O)Oc1ccc(CC(=O)OCCCc2ccc(CC(SCCc3ccc(F)cc3)C(=O)O)cc2)cc1` (stereo not shown) [Example 6, 2-[2-(4-Fluoro-phenyl)-ethylsulfanyl]-3-(4-{3-[2-(4-methanesulfonyloxy-phenyl)-acetoxy]-propyl}-phenyl)-propionic acid], the EC50 at human PPARalpha is 330 nM; on human PPARgamma, 18000 nM.
For the compound `CC(C(=O)OCc1ccc(CC(SCCc2ccc(F)cc2)C(=O)O)cc1)c1ccccc1` (stereo not shown) [Example 7, 2-[2-(4-Fluoro-phenyl)-ethylsulfanyl]-3-[4-(2-phenyl-propionyloxymethyl)-phenyl]-propionic acid], the values for the EC50 on human PPARalpha and at human PPARgamma were 18000 nM and 1700 nM, respectively.
Take `COc1ccc(CC(=O)OCc2ccc(CC(SCCc3ccc(F)cc3)C(=O)O)cc2)cc1` (stereo not shown) [Example 8]: the EC50 at human PPARalpha came to 270 nM; on human PPARgamma, 2500 nM.
The matching figures for `CC(C)Cc1ccc(C(C)C(=O)OCc2ccc(CC(SCCc3ccc(F)cc3)C(=O)O)cc2)cc1` (stereo not shown) [Example 9, 2-[2-(4-Fluoro-phenyl)-ethylsulfanyl]-3-{4-[2-(4-isobutyl-phenyl)-propionyloxymethyl]-phenyl}-propionic acid]: 1500 nM and 930 nM.
In the case of `CN1CCN(CC(=O)OCc2ccc(CC(SCCc3ccc(F)cc3)C(=O)O)cc2)CC1` (stereo not shown) [Example 11, 2-[2-(4-Fluoro-phenyl)-ethylsulfanyl]-3-{4-[2-(4-methyl-piperazin-1-yl)-acetoxymethyl]-phenyl}-propionic acid], the EC50 on human PPARalpha stood at 150 nM; on human PPARgamma, 810 nM.
Consider `O=C(OCc1nc(-c2ccccc2)oc1C(F)(F)F)c1ccc(CC(SCCc2ccc(F)cc2)C(=O)O)cc1` (stereo not shown) [Example 12, 4-{2-Carboxy-2-[2-(4-fluoro-phenyl)-ethylsulfanyl]-ethyl}-benzoic acid 2-phenyl-5 trifluoromethyl-oxazol-4-ylmethyl ester], for which the EC50 on human PPARgamma was found to be 58 nM.
In the case of `O=C(OCc1ccc(CC(SCCc2ccc(F)cc2)C(=O)O)cc1)c1nc(-c2ccccc2)oc1C(F)(F)F` (stereo not shown) [Example 13, 2-Phenyl-5-trifluoromethyl-oxazole-4-carboxylic acid 4-{2-carboxy-2-[2-(4-fluoro-phenyl)-ethylsulfanyl]-ethyl}-benzyl ester], the figures for the EC50 on human PPARalpha and on human PPARgamma were 12 nM and 30 nM, respectively.
The matching figures for `Cc1oc(-c2ccccc2)nc1CCOC(=O)c1ccc(CC(SCCc2ccc(F)cc2)C(=O)O)cc1` (stereo not shown) [Example 14, 4-{2-Carboxy-2-[2-(4-fluoro-phenyl)-ethylsulfanyl]-ethyl}-benzoic acid 2-(5-methyl-2 phenyl-oxazol-4-yl)-ethyl ester]: 1400 nM and 110 nM.
With `Cc1oc(-c2ccccc2)nc1CC(=O)OCc1ccc(CC(SCCc2ccc(F)cc2)C(=O)O)cc1` (stereo not shown) [Example 15, 2-[2-(4-Fluoro-phenyl)-ethylsulfanyl]-3-{4-[2-(5-methyl-2-phenyl-oxazol-4-yl)acetoxymethyl]-phenyl}-propionic acid], the EC50 was determined as 130 nM at human PPARalpha and 840 nM on human PPARgamma.
In the case of `CS(=O)(=O)Oc1ccc(COC(=O)c2ccc(CC(SCCc3ccc(F)cc3)C(=O)O)cc2)cc1` (stereo not shown) [Example 16, 4-{2-Carboxy-2-[2-(4-fluoro-phenyl)-ethylsulfanyl]-ethyl}-benzoic acid 4-methanesulfonyloxy-benzyl ester], the EC50 at human PPARalpha is 1100 nM.
On to `O=C(Cc1ccc(CC(C(=O)O)S(=O)(=O)CCc2ccc(F)cc2)cc1)OCc1ccc(C(F)(F)F)cc1` (stereo not shown) [Example 17, 2-[2-(4-Fluoro-phenyl)-ethanesulfonyl]-3-[4-(4-trifluoromethyl-benzyloxycarbonylmethyl)-phenyl]-propionic acid], for which the figures for the EC50 on human PPARalpha and at human PPARgamma were 4400 nM and 18000 nM, respectively.
As for `CS(=O)(=O)Oc1ccc(CCSC(=O)c2ccc(CC(SCCc3ccc(F)cc3)C(=O)O)cc2)cc1` (stereo not shown) [Example 18, 2-[2-(4-Fluoro-phenyl)-ethylsulfanyl]-3-{4-[2-(4-methanesulfonyloxy-phenyl)-ethylsulfanylcarbonyl]-phenyl}-propionic acid], the EC50 on human PPARalpha amounted to 3400 nM.
Consider `CCO[C@@H](Cc1ccc(OC(=O)Cc2ccc(NC(=O)OC(C)(C)C)cc2)cc1)C(=O)O` [Example 22, (S)-3-{4-[2-(4-tert-Butoxycarbonylamino-phenyl)-acetoxy]-phenyl}-2-ethoxy-propionic acid], for which the EC50 at human PPARalpha and at human PPARgamma was 18000 nM in each case.
Consider `CCOC(Cc1ccc(OC(=O)Cc2nc(-c3ccccc3)oc2C)c(Cc2ccccc2)c1)C(=O)O` (stereo not shown) [Example 23, 3-{3-Benzyl-4-[2-(5-methyl-2-phenyl-oxazol-4-yl)-acetoxy]-phenyl}-2-ethoxy-propionic acid], for which the EC50 at human PPARgamma was determined as 53 nM.
Still for that read-out and setting: the same measure for `CCOC(Cc1ccc(OC(=O)Cc2ccc(NC(=O)OC(C)(C)C)cc2)c(Cc2ccccc2)c1)C(=O)O` (stereo not shown) [Example 24, 3-{3-Benzyl-4-[2-(4-tert-butoxycarbonylamino-phenyl)-acetoxy]-phenyl}-2-ethoxy-propionic acid]: 5.2 nM; for `CCOC(Cc1ccc(OC(=O)Cc2nc(-c3ccccc3)oc2C)c(C)c1)C(=O)O` (stereo not shown) [Example 25, 2-Ethoxy-3-{3-methyl-4-[2-(5-methyl-2-phenyl-oxazol-4-yl)-acetoxy]-phenyl}-propionic acid]: 43 nM.
Still for that read-out and setting: the result for `CCOC(Cc1ccc(OC(=O)Cc2ccc(NC(=O)OC(C)(C)C)cc2)c(C)c1)C(=O)O` (stereo not shown) [Example 26, 3-{4-[2-(4-tert-Butoxycarbonylamino-phenyl)-acetoxy]-3-methyl-phenyl}-2-ethoxy-propionic acid] reads 73 nM.
Turning to `CCOC(Cc1ccc(C(=O)OCc2ccc(OS(C)(=O)=O)cc2)cc1)C(=O)O` (stereo not shown) [Example 27, 4-(2-Carboxy-2-ethoxy-ethyl)-benzoic acid 4-methanesulfonyloxy-benzyl ester], the EC50 on human PPARgamma came out at 1400 nM.
With `O=C(Cc1cccc(SCc2ccccc2C(=O)O)c1)OCc1ccc(C(F)(F)F)cc1` [Example 28, 2-[3-(4-Trifluoromethyl-benzyloxycarbonylmethyl)-phenylsulfanylmethyl]-benzoic acid], the EC50 stood at 1300 nM on human PPARalpha and 2500 nM on human PPARgamma.
Regarding `O=C(Cc1ccc(C(F)(F)F)cc1)OCc1ccc(SCc2ccccc2C(=O)O)cc1` [Example 29, 2-{4-[2-(4-Trifluoromethyl-phenyl)-acetoxymethyl]-phenylsulfanylmethyl}-benzoic acid], the 50% effective concentration (EC50) at human PPARalpha was 29 nM; on human PPARgamma, 760 nM.
The matching figures for `O=C(Cc1ccc(SCc2ccccc2C(=O)O)cc1)OCc1ccc(C(F)(F)F)cc1` [Example 30, 2-[4-(4-Trifluoromethyl-benzyloxycarbonylmethyl)-phenylsulfanylmethyl]-benzoic acid]: 160 nM and 1700 nM.
